# Source: patent publication US10414763B2 (CANCER RESEARCH TECHNOLOGY LIMITED, priority 2014, dated 2019)
# Target: T1, full-length human PKCι (Homo sapiens, UniProt P41743)
# T1 construct: Recombinant, full-length human PKCι expressed in Sf21 insect cells is also commercially available; purchased EMD Millipore; host or cells: Sf21 insect cells (baculovirus)
# T1 sequence (P41743 1-596): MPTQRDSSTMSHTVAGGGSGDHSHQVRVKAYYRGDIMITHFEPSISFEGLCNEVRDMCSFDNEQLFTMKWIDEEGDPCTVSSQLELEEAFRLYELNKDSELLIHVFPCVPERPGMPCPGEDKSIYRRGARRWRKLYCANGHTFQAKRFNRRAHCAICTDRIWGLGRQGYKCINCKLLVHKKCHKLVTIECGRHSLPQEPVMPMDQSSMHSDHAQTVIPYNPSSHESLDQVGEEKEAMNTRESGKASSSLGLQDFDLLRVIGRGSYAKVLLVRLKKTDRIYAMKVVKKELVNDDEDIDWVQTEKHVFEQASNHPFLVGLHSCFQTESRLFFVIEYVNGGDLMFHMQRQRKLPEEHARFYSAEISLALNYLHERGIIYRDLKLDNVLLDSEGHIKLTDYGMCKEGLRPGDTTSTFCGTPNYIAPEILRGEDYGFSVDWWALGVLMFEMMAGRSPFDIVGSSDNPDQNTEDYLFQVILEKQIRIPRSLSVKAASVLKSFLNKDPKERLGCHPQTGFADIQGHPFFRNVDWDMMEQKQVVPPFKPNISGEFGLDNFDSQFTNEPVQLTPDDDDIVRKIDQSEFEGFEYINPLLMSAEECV
# Assay: PKCι IC50 IMAP fluorescence polarisation assay, full-length enzyme, 150 μM ATP
# Type: biochemical
# Conditions: read-out: IC50 in IMAP assay against full length PKCi at 150 μM ATP
# Procedure, shortened: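 IMAP fluorescence polarisation kinase assay: 15 pM baculovirus-expressed human PKCiota with 100 nM FAM-pseudosubstrate peptide and 150 μM ATP, 1 h at 25 °C. IMAP detection reagent then 2 h at 25 °C before FP measurement. Inhibition referenced to no-compound and no-enzyme controls for IC50 fitting.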
row,SMILES,IC50
1,"CC1(C)CNCCC1Nc1nc(-c2ccnc(Nc3ccccc3)c2)nc2cncc(C3CCC3)c12 (stereo not shown) [Example 91, [5-Cyclobutyl-2-(2-phenylamino-pyridin-4-yl)-pyrido[3,4-d]pyrimidin-4-yl]-(3,3-dimethyl-piperidin-4-yl)-amine]",< 0.1 µM
2,"N[C@H]1C[C@@H](Nc2nc(-c3ccnc4[nH]c5ccccc5c34)nc3cncc(C(F)(F)F)c23)C1 [Example 218, cis-N-[2-(9H-Pyrido[2,3-b]indol-4-yl)-5-trifluoromethyl-pyrido[3,4-d]pyrimidin-4-yl]-cyclobutane-1,3-diamine]",0.1 to 1 µM
3,"CC1(C)CNCC[C@@H]1Nc1nc(-c2ccnc(Nc3ncc(F)cc3F)c2)nc2cncc(C3CCC3)c12 [Example 211, {5-Cyclobutyl-2-[2-(3,5-difluoro-pyridin-2-ylamino)-pyridin-4-yl]-pyrido[3,4-d]pyrimidin-4-yl}-((S)-3,3-dimethyl-piperidin-4-yl)-amine]",< 0.1 µM
4,"c1ccc2c(c1)[nH]c1nccc(-c3nc(N4CC[C@H]5CNC[C@H]54)c4c(C5CCC5)cncc4n3)c12 [Example 10, 4-((S)-5-Cyclobutyl-4 (S)-hexahydro-pyrrolo[3,4-b]pyrrol-1-yl-pyrido[3,4-d]pyrimidin-2-yl)-9H-pyrido[2,3-b]indole]",< 0.1 µM
5,"NC1CCN(c2nc(-c3ccnc4[nH]c5ccccc5c34)nc3cncc(C4CCC4)c23)C1 (stereo not shown) [Example 214, 1-[5-Cyclobutyl-2-(9H-pyrido[2,3-b]indol-4-yl)-pyrido[3,4-d]pyrimidin-4-yl]-pyrrolidin-3-ylamine]",< 0.1 µM
6,"Fc1cc(F)c(Nc2cc(-c3nc(N4CCC5NCCC54)c4c(C5CCC5)cncc4n3)ccn2)nc1F (stereo not shown) [Example 98, {4-[5-Cyclobutyl-4-(hexahydro-pyrrolo[3,2-b]pyrrol-1-yl)-pyrido[3,4-d]pyrimidin-2-yl]-pyridin-2-yl}-(3,5,6-trifluoro-pyridin-2-yl)-amine]",< 0.1 µM
7,"c1ccc2c(c1)[nH]c1nccc(-c3nc(NC4CCCNCC4)c4c(C5CCC5)cncc4n3)c12 (stereo not shown) [Example 22, Azepan-4-yl-[5-cyclobutyl-2-(9H-pyrido[2,3-b]indol-4-yl)-pyrido[3,4-d]pyrimidin-4-yl]-amine]",< 0.1 µM
8,"Cc1cc2c(-c3nc(N[C@H]4CCNCC4(C)C)c4c(C5CC5)cncc4n3)ccnc2[nH]1 [Example 153, [5-Cyclopropyl-2-(2-methyl-1H-pyrrolo[2,3-b]pyridin-4-yl)-pyrido[3,4-d]pyrimidin-4-yl]-((S)-3,3-dimethyl-piperidin-4-yl)-amine]",0.1 to 1 µM
9,"O[C@]12CCN(c3nc(-c4ccnc5[nH]c(C(F)(F)F)cc45)nc4cncc(C5CC5)c34)[C@H]1CCNC2 (racemic) [Example 104, (±)-(3aS,7aS)-1-[5-Cyclopropyl-2-(2-trifluoromethyl-1H-pyrrolo[2,3-b]pyridin-4-yl)-pyrido[3,4-d]pyrimidin-4-yl]-octahydro-pyrrolo [3,2-c]pyridin-3a-ol]",< 0.1 µM
10,Cn1cc(-c2cc3c(-c4nc(N5CCNCC5)c5c(C6CCC6)cncc5n4)ccnc3[nH]2)cn1 [Example 132],< 0.1 µM
11,"Cc1cc2c(-c3nc(N4CC[C@H]5NCC[C@H]54)c4c(C5CC5)cncc4n3)ccnc2[nH]1 (racemic) [Example 82, (±)-5-Cyclopropyl-4-(3,6-cis)-hexahydro-pyrrolo[3,2-b]pyrrol-1-yl-2-(2-methyl-1H-pyrrolo[2,3-b]pyridin-4-yl)-pyrido[3,4-d]pyrimidine]",< 0.1 µM
12,"c1ccc2c(c1)[nH]c1nccc(-c3nc(N4CC[C@@H]5CNC[C@@H]54)c4c(C5CCC5)cncc4n3)c12 [Example 9, 4-((R)-5-Cyclobutyl-4-(R)-hexahydro-pyrrolo[3,4-b]pyrrol-1-yl-pyrido[3,4-d]pyrimidin-2-yl)-9H-pyrido[2,3-b]indole]",< 0.1 µM

# The next lines start with the values.
row,IC50,SMILES
1,< 0.1 µM,"O[C@@H]1CNCC[C@H]1Nc1nc(-c2ccnc(Nc3nc(F)cc(F)c3F)c2)nc2cncc(C3CCC3)c12 (racemic) [Example 296, rac-(3R,4R)-4-{5-Cyclobutyl-2-[2-(3,4,6-trifluoro-pyridin-2-ylamino)-pyridin-4-yl]-pyrido[3,4-d]pyrimidin-4-ylamino}-piperidin-3-ol]"
2,< 0.1 µM,"C[C@@H]1CNCC[C@H]1Nc1nc(-c2ccnc(Nc3nc(F)cc(F)c3F)c2)nc2cncc(C3CCC3)c12 (racemic) [Example 291, {5-Cyclobutyl-2-[2-(3,4,6-trifluoro-pyridin-2-ylamino)-pyridin-4-yl]-pyrido[3,4-d]pyrimidin-4-yl}-(rac-(3R,4R)-3-methyl-piperidin-4-yl)-amine]"
3,< 0.1 µM,"CC1(C)CNCC[C@@H]1Nc1nc(-c2ccnc3[nH]c(C(F)(F)F)cc23)nc2cncc(C3CCC3)c12 [Example 228, [5-Cyclobutyl-2-(2-trifluoromethyl-1H-pyrrolo[2,3-b]pyridin-4-yl)-pyrido[3,4-d]pyrimidin-4-yl]-((S)-3,3-dimethyl-piperidin-4-yl)-amine]"
4,< 0.1 µM,"CC1(C)CNCC[C@@H]1Nc1nc(-c2ccnc(Nc3ncn(-c4ccccc4)n3)c2)nc2cncc(C3CC3)c12 [Example 243, {5-Cyclopropyl-2-[2-(1-phenyl-1H-1,2,4-triazol-3-ylamino)-pyridin-4-yl]-pyrido[3,4-d]pyrimidin-4-yl}-((S)-3,3-dimethyl-piperidin-4-yl)-amine]"
5,< 0.1 µM,"CC1(C)CNCC[C@@H]1Nc1nc(-c2ccnc(Nc3c(F)cccc3F)c2)nc2cncc(C3CCC3)c12 [Example 255, {5-Cyclobutyl-2-[2-(2,6-difluoro-phenylamino)-pyridin-4-yl]-pyrido[3,4-d]pyrimidin-4-yl}-((S)-3,3-dimethyl-piperidin-4-yl)-amine]"
6,< 0.1 µM,"C[C@@H]1CNCC[C@H]1Nc1nc(-c2ccnc3[nH]c4ccccc4c23)nc2cncc(C3CCC3)c12 (racemic) [Example 346, [5-Cyclobutyl-2-(9H-pyrido[2,3-b]indol-4-yl)-pyrido[3,4-d]pyrimidin-4-yl]-(rac-(3R,4R)-3-methyl-piperidin-4-yl)-amine]"
7,< 0.1 µM,"COc1ccc(Cl)c(-c2cc3c(-c4nc(N[C@H]5CCNCC5(C)C)c5c(C6CC6)cncc5n4)ccnc3[nH]2)c1 [Example 368, {2-[2-(2-Chloro-5-methoxy-phenyl)-1H-pyrrolo[2,3-b]pyridin-4-yl]-5-cyclopropyl-pyrido[3,4-d]pyrimidin-4-yl}-((S)-3,3-dimethyl-piperidin-4-yl)-amine]"
8,< 0.1 µM,"CC1(C)CNCC[C@@H]1Nc1nc(-c2ccnc3[nH]c(-c4cncc(F)c4)cc23)nc2cncc(C3CCC3)c12 [Example 370, {5-Cyclobutyl-2-[2-(5-fluoro-pyridin-3-yl)-1H-pyrrolo[2,3-b]pyridin-4-yl]-pyrido[3,4-d]pyrimidin-4-yl}-((S)-3,3-dimethyl-piperidin-4-yl)-amine]"
9,< 0.1 µM,"O[C@H]1CNCC[C@H]1Nc1nc(-c2ccnc(Nc3ncccc3F)c2)nc2cncc(C3CCC3)c12 (racemic) [Example 292, rac-(3S,4R)-4-{5-Cyclobutyl-2-[2-(3-fluoro-pyridin-2-ylamino)-pyridin-4-yl]-pyrido[3,4-d]pyrimidin-4-ylamino}-piperidin-3-ol]"
10,< 0.1 µM,"CC1(C)CNCC[C@@H]1Nc1nc(-c2ccnc(Nc3nc(F)cc(F)c3F)c2)nc2cncc(C3CCC3)c12 [Example 326, 5-Cyclobutyl-N-[(4S)-3,3-dimethyl-4-piperidyl]-2-[2-[(3,4,6-trifluoro-2-pyridyl)amino]-4-pyridyl]pyrido[3,4-d]pyrimidin-4-amine]"
